Assay results published in patent publication US7960415B2, “Caspase inhibitors and uses thereof” (Vertex Pharmaceutical Incoporated, priority 2003, dated 2011).

Assays:
Jurkat E6.1 cells = experiment: Anti-Fas induced apoptosis assay; assay type: cell-based; details: Homo sapiens, anti-Fas antibody CH-11 10 ng/ml, 16-18 hrs, DNA fragmentation
Text: Cellular apoptosis may be induced by the binding of Fas ligand (FasL) to its receptor, CD95 (Fas). CD95 is one of a family of related receptors, known as death receptors, which can trigger apoptosis in cells via activation of the caspase enzyme cascade. The process is initiated by the binding of the adapter molecule FADD/MORT-1 to the cytoplasmic domain of the CD-95 receptor-ligand complex. Caspase-8 then binds FADD and becomes activated, initiating a cascade of events that involve the activation of downstream caspases and subsequent cellular apoptosis. Apoptosis can also be induced in cells expressing CD95 e.g., the Jurkat E6.1 T cell lymphoma cell line, using an antibody, rather than FasL, to crosslink the cell surface CD95. Anti-Fas-induced apoptosis is also triggered via the activation of caspase-8. This provides the basis of a cell based assay to screen compounds for inhibition of the caspase-8-mediated apoptotic pathway.
Jurkat E6.1 cells are cultured in complete medium consisting of RPMI-1640 (Sigma No)+10% foetal calf serum (Gibco BRL No. 10099-141)+2 mM L-glutamine (Sigma No. G-7513). The cells are harvested in log phase of growth. 100 ml of cells at 5-8×10^5 cells/ml are transferred to sterile 50 ml Falcon centrifuge tubes and centrifuged for 5 minutes at 100×g at room temperature. The supernatant is removed and the combined cell pellets resuspended in 25 ml of complete medium. The cells are counted and the density adjusted to 2×10^6 cells/ml with complete medium.
The test compound is dissolved in dimethyl sulfoxide (DMSO)(Sigma No. D-2650) to give a 100 mM stock solution. This is diluted to 400 μM in complete medium, then serially diluted in a 96-well plate prior to addition to the cell assay plate.
100 μl of the cell suspension ([…]) is added to each well of a sterile 96-well round-bottomed cluster plate (Costar No. 3790). 50 μl of compound solution at the appropriate dilution and 50 μl of anti-Fas antibody, clone CH-11 (Upstate, Cat No. 1 544 675) at a final concentration of 10 ng/ml, are added to the wells. Control wells are set up minus antibody and minus compound but with a serial dilution of DMSO as vehicle control. The plates are incubated for 16-18 hrs at 37° C. in 5% CO2 and 95% humidity.
Apoptosis of the cells is measured by the quantitation of DNA fragmentation using a ‘Cell Death Detection Assay’ from Roche diagnostics, No. 1544 675. After incubation for 16-18 hrs the assay plates are centrifuged at 100×g at room temperature for 5 minutes. 150 μl of the supernatant are removed and replaced by 150 μl of fresh complete medium. The cells are then harvested and 200 μl of the lysis buffer supplied in the assay kit are added to each well. The cells are triturated to ensure complete lysis and incubated for 30 minutes at 4° C. The plates are then centrifuged at 1900×g for 10 minutes and the supernatants diluted 1:20 in the incubation buffer provided. 100 μl of this solution is then assayed according to the manufacturer's instructions supplied with the kit. OD405 nm is measured 20 minutes after addition of the final substrate in a SPECTRAmax Plus plate reader (Molecular Devices). OD405 nm is plotted versus compound concentration and the IC50 values for the compounds are calculated using the curve-fitting program SOFTmax Pro (Molecular Devices) using the four parameter fit option.

[1] = test system: IL-1β secretion from human whole blood; experiment: Inhibition of IL-1β secretion from whole blood; assay type: cell-based; details: human whole blood diluted 1:2, LPS 5 ng/ml, 18 hours, ELISA
Experimental: Human blood is freshly drawn from healthy donors and diluted 1:2 in PBS. To 500 μl of diluted blood […] of prediluted test compound in RPMI medium and […] LPS (5 ng/ml final concentration on the plate) are added (LPS, Serotype 0111:B4, Sigma L3012). After stimulation for 18 hours supernatants are collected and assayed for IL-1β levels using the appropriate ELISA kit (R&D systems).

rat cortical neurons = experiment: Hypoxia-induced apoptosis of rat cortical neurons; assay type: cell-based, Wistar rat; details: Cortical neurone, 95% N2/5% CO2, Cell Death Detection ELISA (DNA fragmentation)
Experimental: Cortical neurons are dissociated from Wistar rat embryos (E17) by a modification of the procedure of Rogers et al. 1997, Brain Res. Bulletin, 44:131. Briefly, cerebral cortices are isolated aseptically from 15-20 Wistar rat embryos. A cell suspension is prepared by mincing the cerebral cortices and digesting them with papain. Cells are washed with ovomucoid enzyme inhibitor and DNaseI and plated onto Poly-D lysine coated plates in high glucose DMEM containing 10% heat-inactivated fetal calf serum, L-glutamine, penicillin and streptomycin. The yield of neurons is […] per embryo and they are 80-90% viable as assessed by Trypan blue exclusion.
The neurons are cultured in complete medium at 37° C. in a normal atmosphere for 48 hours prior to the hypoxia experiments. For hypoxia, the normal cell medium is replaced by oxygen-depleted serum-free medium. Cells are incubated in an atmosphere of 95% N2/5% CO2 for various lengths of time. Compounds are dissolved in DMSO at 100 mM then diluted in medium and added to the culture from time=0. The level of apoptosis is measured using a Cell Death Detection ELISA kit (Roche) which detects DNA fragmentation. Plates are read at 405 nm. Controls included cells cultured in aerobic conditions in serum-containing medium (+serum) and cells cultured in aerobic conditions in serum-deprived medium (−serum).

| SMILES | IC50 (Jurkat E6.1 cells) [µM] | IC50 [1] [µM] | IC50 (rat cortical neurons) [µM] |
| --- | --- | --- | --- |
| CCCS(=O)(=O)Nc1cccn([C@@H](CC)C(=O)N[C@@H](CC(=O)O)C(=O)COc2c(F)c(F)cc(F)c2F)c1=O [Compound 19, (S,S)-4-Oxo-3-{2-[2-oxo-3-(propane-1-sulfonylamino)-2H-pyridin-1-yl]-butyrylamino}-5-(2,3,5,6-tetrafluoro-phenoxy)-pentanoic acid] | < 0.5 | 0.5 to 5 | 1 to 10 |
| CC[C@@H](C(=O)N[C@@H](CC(=O)O)C(=O)COc1c(F)c(F)cc(F)c1F)n1cccc(NS(=O)(=O)CC)c1=O [Compound 18, (S,S)-3-[2-(3-Ethanesulfonylamino-2-oxo-2H-pyridin-1-yl)-butyrylamino]-4-oxo-5-(2,3,5,6-tetrafluoro-phenoxy)-pentanoic acid] | < 0.5 | 0.5 to 5 | 1 to 10 |
| CCC(=O)Nc1cccn([C@@H](CC)C(=O)N[C@@H](CC(=O)O)C(=O)COc2c(F)c(F)cc(F)c2F)c1=O [Compound 2, (S,S)-4-Oxo-3-[2-(2-oxo-3-propionylamino-2H-pyridin-1-yl)-butyrylamino]-5-(2,3,5,6-tetrafluoro-phenoxy)-pentanoic acid] | < 0.5 | < 0.5 | < 1 |
| CC[C@@H](C(=O)N[C@@H](CC(=O)O)C(=O)COc1c(F)c(F)cc(F)c1F)n1cc(C(F)(F)F)cc(NC(C)=O)c1=O [Compound 13, (S,S)-3-[2-(3-Acetylamino-2-oxo-5-trifluoromethyl-2H-pyridin-1-yl)-butyrylamino]-4-oxo-5-(2,3,5,6-tetrafluoro-phenoxy)-pentanoic acid] | < 0.5 | 0.5 to 5 | < 1 |
| CC[C@@H](C(=O)N[C@@H](CC(=O)O)C(=O)COc1c(F)c(F)cc(F)c1F)n1cccc(NC(=O)OC)c1=O [Compound 17, (S,S)-3-[2-(3-Methoxycarbonylamino-2-oxo-2H-pyridin-1-yl)-butyrylamino]-4-oxo-5-(2,3,5,6-tetrafluoro-phenoxy)-pentanoic acid] | < 0.5 | < 0.5 | < 1 |
| CC[C@@H](C(=O)N[C@@H](CC(=O)O)C(=O)COc1c(F)c(F)cc(F)c1F)n1cc(C(F)(F)F)cc(NS(=O)(=O)CC)c1=O [Compound 22, (S,S)-3-[2-(3-Ethanesulfonylamino-2-oxo-5-trifluoromethyl-2H-pyridin-1-yl)-butyrylamino]-4-oxo-5-(2,3,5,6-tetrafluoro-phenoxy)-pentanoic acid] | < 0.5 | 0.5 to 5 | < 1 |
| CC[C@@H](C(=O)N[C@@H](CC(=O)O)C(=O)COc1c(F)c(F)cc(F)c1F)n1cccc(NC(=O)C(C)C)c1=O [Compound 5, (S,S)-3-[2-(3-Isobutyrylamino-2-oxo-2H-pyridin-1-yl)-butyrylamino]-4-oxo-5-(2,3,5,6-tetrafluoro-phenoxy)-pentanoic acid] | < 0.5 | < 0.5 | < 1 |
| CCC(=O)Nc1cccn([C@@H](CC)C(=O)NC(CC(=O)O)C(=O)CF)c1=O (stereo partly drawn) [Compound 29, (S)-5-Fluoro-4-oxo-3-[2-(2-oxo-3-propionylamino-2H-pyridin-1-yl)-butyrylamino]-pentanoic acid] | < 0.5 | < 0.5 | 1 to 10 |
| CC[C@@H](C(=O)N[C@@H](CC(=O)O)C(=O)COc1c(F)c(F)cc(F)c1F)n1cccc(NC(=O)c2ccccc2)c1=O [Compound 11, (S,S)-3-[2-(3-Benzoylamino-2-oxo-2H-pyridin-1-yl)-butyrylamino]-4-oxo-5-(2,3,5,6-tetrafluoro-phenoxy)-pentanoic acid] | < 0.5 | < 0.5 | < 1 |
